Test results taken from US11903917B2, “MEK-inhibitor for the treatment of viral and bacterial infections” (priority 2017, dated 2024).

Experiments:
[1] = test system: influenza virus strain A/Regensburg/D6/2009 (RB1, H1N1 pdm09); assay: Example 1: virus titer in the lung of infected mice, AVICEL plaque assay; assay type: in vivo, C57BL/6 mice
Experimental: 8 weeks old C57BL/6 mice (five per group) were infected with 1.5×10^5 PFU (5×MLD50) of the influenza virus strain A/Regensburg/D6/2009, (RB1, H1N1 pdm09). […] All animals received a volume of 200 μl per os. Mice were sacrificed 24 h post infection and lungs were weighed, transferred into a Lysing Matrix D tube (MP Bio) and BSS (buffered salt solution) in an amount of the 10-fold volume of the lung was applied to the samples. Organs were shredded using the FastPrep FP 120 (Savant). To remove the cell debris the homogenates were centrifuged for 15 min at 2000 rpm and the supernatant collected. The determination of virus titer in homogenates was performed using the AVICEL® plaque assay. Results are presented in FIG. 1 as virus titer (log 10) pfu/ml (left) or % virus titer (right). Virus titer was determined by two investigators independently. Mean values from all titrations were presented.

[2] = test system: S. aureus; assay: Resistance development during 17 days of constant treatment; assay type: cell-based, Staphylococcus aureus; conditions: 24 h cycles repeated for 17 days

O=C(O)c1ccc(F)c(F)c1Nc1ccc(I)cc1Cl [PD-0184264, 2-(2-chloro-4-iodophenylamino)-N-3,4-difluoro benzoic acid]
effect on virus titer in the lung (FIG. 1) ([1]; 25 mg/kg per os, 8 h interval, 24 h post infection): same effect as 150 mg/kg CI-1040 | efficacy in vivo by oral administration (Example 1) ([1]; 25 and 75 mg/kg): effective | resistance development in S. aureus [2]: did not induce resistance
